Measured values: US11111500B2, “Mutated protoporphyrinogen IX oxidase (PPX) genes” (CIBUS US LLC, priority 2010, dated 2021)

Tests used:
[1] = test system: potato protoplasts (protoplast derived microcalli); assay: Flumioxazin kill curve with cell suspension and shoot tip-derived protoplasts; type: cell-based; details: for # Of calli in 3 beads, # / # Of calli in 3 beads, %: Non treated protoplast + PEG; for # Of calli in 3 beads, # / # Of calli in 3 beads, % / # of calli in 3 beads, # / # of calli in 3 beads, %: one month; for # Of calli in 3 beads, % / # of calli in 3 beads, %: % of average control; for # of calli in 3 beads, # / # of calli in 3 beads, %: Stop-GFP + Correcting GRON
Procedure: Herbicide selection experiments were performed to determine the concentration of herbicide necessary to kill protoplast derived microcalli in a defined treatment period. […] The herbicide was suspended in DMSO, with the final concentration of DMSO in the herbicide treatments being 1%. Development of cells was evaluated under the microscope once a week. […] A flumioxazin concentration of 0.032 mM is sufficient to prevent microcallus development from potato protoplasts.
About 200 shoot tips of 2-8 week-old in vitro shoots that have been cultured under a regular day/night regime, or, preferably were kept for two days before protoplast isolation in the dark, shoots may be cut into small pieces with a scalpel in a petri dish with sterile water. After all tips have been cut, the water is replaced with protoplast culture medium, preferably BN (B5 Salts and Vitamins (Phytotechnology Laboratories), glucose 20 g/L, mannitol 70 g/L, alpha naphthalene acetic acid 5 mg/L, additional CaCl2×2H2O 600 mg/L, casein hydrolysate 250 mg/L, cystcine-HCL 10 mg/L, polyvinylpyrrolidone (MW 10,000) 5 g/L. After approximately 1-2 h, the protoplast culture medium is replaced with enzyme solution, for example consisting of medium BN, in which 0.5% (w/v) Cellulase YC and 0.75% (w/v) Maccrozyme R10 (both from Karlan Research Products, Cottonwood, Ariz.), 1 g/L bovine serum albumin, and 1 g/L 2-morpholinoethanesulfonic acid are dissolved. The ratio of the number of shoot tips over the volume of enzyme solution can be between 10 and 16, preferably 13. The dish with shoot tip pieces in enzyme solution is incubated for at 25° C.-30° C., preferably 28° C., in darkness on a shaker set to about 50 rpm. After overnight incubation the protoplast suspension is purified using an iodixanol density gradient (adapted from Optiprep Application Sheet C18; Purification of Intact Plant Protoplasts; Axis-Shield USA, 10 Commerce Way, Norton, Mass. 02776). After the density gradient centrifugation, the band with purified protoplasts is removed together with about 5 mL W5 medium (Frigerio et al., 1998). The protoplast density and yield are determined with a hemocytometer. The protoplasts density is adjusted to 1×10^6/mL in BN medium containing 2 mg/L 2,6-dichlorobenzonitrile (cellulose synthase inhibitor), and the protoplasts are cultured in darkness at 30° C. for about 16 h.
1. Fast growing cell suspensions are used, preferably three days after their last subculture. 1.5 mL settled cell volume is transferred to about 15 ml BN medium, which after 2 h is replaced with enzyme solution. 2. The protoplast purification is followed immediately by the GRON/PEG treatment.
The protoplast suspension is mixed with an equal volume of W5 medium, transferred to a 50 mL centrifuge tube, and centrifuged for 10 min at the lowest setting of a clinical centrifuge (about 50×g). The supernatant is removed and replaced with TM medium (Klaus, S. Markerfreie transplastome Tabakpflanzen (Marker-free transplastomic tobacco plants). PhD Dissertation, 2002, Ludwig-Maximilians-Universitát Múnchen, 109 pp), adjusting the protoplast density to 5×10^6/mL. Aliquots of 100 μL containing 5×10^5 protoplasts each are distributed into 12 mL round bottom centrifuge tubes. GRONs (such as those shown in Table 14) targeted at one or more mutations in one or both of the mitochondrial and plastidal PPX genes are then introduced into the protoplasts using a PEG treatment. To introduce the GRONs into the protoplasts, 12.5 μg GRON dissolved in 25 μL purified water and 125 μL of a polyethylene glycol solution (5 g PEG MW 1500, 638 mg mannitol, 207 mg CaNO3×4H2O and 8.75 mL purified water; pH adjusted to about 9.0) is added. After a 10-30 min incubation on ice, the protoplast-PEG suspension is washed with W5 medium and resuspended in medium BN. The suspension is kept overnight in darkness at room temperature.
One day after the GRON introduction, protoplasts are embedded in calcium alginate. […]

[2] = test system: leaf disc explants of in vitro grown potato plants; assay: Leaf disk kill curve (callus formation in leaf disc explants); type: cell-based
Procedure: Aimed at establish the concentration of sulfentrazone that will inhibit callus formation in leaf disc explants, leaf discs were punched with a sterile hole punch from 5 weeks old in vitro grown potato plants. The leaf discs were cultured in petri dishes containing solid Haberlach culture medium containing various concentrations of Sulfentrazone in a final concentration of 1% DMSO. Six leaf discs cultured at each herbicide concentration. Plates were sealed with micropore tape and incubated at room temperature (approximately 23° C.). In an initial experiment, 7.8 μM sulfentrazone, the lowest concentration tested in that experiment, was sufficient to stop callus formations and bleach all leaf discs within 20 days. […] Similar leaf disc kill curve experiments were performed using saflufenacil where 0.5 μM of this herbicide was sufficient to inhibit callus formation in almost all leaf discs after 20 days.

Compound: C#CCN1C(=O)COc2cc(F)c(N3C(=O)C4=C(CCCC4)C3=O)cc21 [flumioxazin]
- concentration sufficient to prevent microcallus development from potato protoplasts [1]: 0.032 mM
- # Of calli in 3 beads, # ([1]; flumioxazin 0.0156 μM): 40
- # Of calli in 3 beads, % ([1]; flumioxazin 0.0156 μM): 25%
- # Of calli in 3 beads, # ([1]; flumioxazin 0.0312 μM): 8
- # Of calli in 3 beads, % ([1]; flumioxazin 0.0312 μM): 5%
- # Of calli in 3 beads, # ([1]; flumioxazin 0.0468 μM): 0.0
- # Of calli in 3 beads, % ([1]; flumioxazin 0.0468 μM): 0.0%
- # Of calli in 3 beads, # ([1]; flumioxazin 0.0624 μM): 0
- # Of calli in 3 beads, % ([1]; flumioxazin 0.0624 μM): 0%
- # of calli in 3 beads, # ([1]; flumioxazin 0.0156 μM): 83
- # of calli in 3 beads, % ([1]; flumioxazin 0.0156 μM): 39%
- # of calli in 3 beads, # ([1]; flumioxazin 0.0312 μM): 11
- # of calli in 3 beads, % ([1]; flumioxazin 0.0312 μM): 4%
- # of calli in 3 beads, # ([1]; flumioxazin 0.0468 μM): 0.0
- # of calli in 3 beads, % ([1]; flumioxazin 0.0468 μM): 0.0%
- # of calli in 3 beads, # ([1]; flumioxazin 0.0624 μM): 0
- # of calli in 3 beads, % ([1]; flumioxazin 0.0624 μM): 0%
- microcalli development after one month ([1]; any concentration tested, 1% DMSO): no microcalli developed at any concentration tested
- concentration sufficient to kill all cells within a week ([1]; initial kill curve): 125 µM

Compound: Cc1nn(-c2cc(NS(C)(=O)=O)c(Cl)cc2Cl)c(=O)n1C(F)F [sulfentrazone]
- concentration sufficient to stop callus formations and bleach all leaf discs within 20 days ([2]; initial experiment, lowest concentration tested, 1% DMSO): 7.8 µM
- time after which callus initiated on the leaf veins of some leaf discs ([2]; leaf discs grown on 2.0 μM): 13 days
- concentration sufficient to inhibit callus formation in almost all leaf discs after 20 days ([2]; solid Haberlach culture medium, 1% DMSO): 3.0 µM
